Laboratory results published in patent US8637511B2, “Aminopyrimidines useful as kinase inhibitors” (Vertex Pharmaceuticals Incorporated, priority 2005, dated 2014).
Read-outs that look alike come from different tables or passages of the source.

Columns and labels:
Colo205 cells = assay: Analysis of cell proliferation and viability; assay type: cell-based; settings: Homo sapiens, COLO 205, Colo205 cells, read-out: IC50 value
FLT-3 = target: T1, FLT-3 (Homo sapiens, UniProt P36888); assay: FLT-3 inhibition assay, radiometric filter-binding; assay type: biochemical
T1 sequence (P36888 27-993): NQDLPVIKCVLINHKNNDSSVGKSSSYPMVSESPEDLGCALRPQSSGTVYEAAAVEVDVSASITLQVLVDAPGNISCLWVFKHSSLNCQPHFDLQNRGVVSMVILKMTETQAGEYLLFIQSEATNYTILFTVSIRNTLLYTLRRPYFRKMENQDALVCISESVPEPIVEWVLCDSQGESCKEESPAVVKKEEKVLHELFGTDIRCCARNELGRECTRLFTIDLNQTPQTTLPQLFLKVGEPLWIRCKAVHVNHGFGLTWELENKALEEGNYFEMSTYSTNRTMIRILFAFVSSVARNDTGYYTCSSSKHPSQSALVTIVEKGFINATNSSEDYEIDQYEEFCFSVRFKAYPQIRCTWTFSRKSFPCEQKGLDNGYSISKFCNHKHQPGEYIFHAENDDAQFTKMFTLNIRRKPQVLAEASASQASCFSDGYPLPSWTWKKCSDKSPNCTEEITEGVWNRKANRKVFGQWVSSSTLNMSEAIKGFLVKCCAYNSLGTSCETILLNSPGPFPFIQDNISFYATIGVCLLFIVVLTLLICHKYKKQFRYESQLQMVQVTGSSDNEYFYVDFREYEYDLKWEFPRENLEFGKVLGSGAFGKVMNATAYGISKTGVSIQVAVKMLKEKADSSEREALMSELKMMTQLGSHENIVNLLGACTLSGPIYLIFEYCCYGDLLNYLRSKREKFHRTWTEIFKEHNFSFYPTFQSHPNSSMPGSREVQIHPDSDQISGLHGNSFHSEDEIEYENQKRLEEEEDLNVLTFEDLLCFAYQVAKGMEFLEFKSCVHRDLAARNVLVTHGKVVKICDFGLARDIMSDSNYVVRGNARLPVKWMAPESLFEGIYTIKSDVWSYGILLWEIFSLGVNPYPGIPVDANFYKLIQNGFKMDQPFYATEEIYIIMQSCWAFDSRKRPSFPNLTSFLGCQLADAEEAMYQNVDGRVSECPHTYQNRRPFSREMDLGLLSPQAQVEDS

JAK3 = target: T2, JAK3 (Homo sapiens, UniProt P52333); assay: biochemical
T2 sequence (P52333 1-1124): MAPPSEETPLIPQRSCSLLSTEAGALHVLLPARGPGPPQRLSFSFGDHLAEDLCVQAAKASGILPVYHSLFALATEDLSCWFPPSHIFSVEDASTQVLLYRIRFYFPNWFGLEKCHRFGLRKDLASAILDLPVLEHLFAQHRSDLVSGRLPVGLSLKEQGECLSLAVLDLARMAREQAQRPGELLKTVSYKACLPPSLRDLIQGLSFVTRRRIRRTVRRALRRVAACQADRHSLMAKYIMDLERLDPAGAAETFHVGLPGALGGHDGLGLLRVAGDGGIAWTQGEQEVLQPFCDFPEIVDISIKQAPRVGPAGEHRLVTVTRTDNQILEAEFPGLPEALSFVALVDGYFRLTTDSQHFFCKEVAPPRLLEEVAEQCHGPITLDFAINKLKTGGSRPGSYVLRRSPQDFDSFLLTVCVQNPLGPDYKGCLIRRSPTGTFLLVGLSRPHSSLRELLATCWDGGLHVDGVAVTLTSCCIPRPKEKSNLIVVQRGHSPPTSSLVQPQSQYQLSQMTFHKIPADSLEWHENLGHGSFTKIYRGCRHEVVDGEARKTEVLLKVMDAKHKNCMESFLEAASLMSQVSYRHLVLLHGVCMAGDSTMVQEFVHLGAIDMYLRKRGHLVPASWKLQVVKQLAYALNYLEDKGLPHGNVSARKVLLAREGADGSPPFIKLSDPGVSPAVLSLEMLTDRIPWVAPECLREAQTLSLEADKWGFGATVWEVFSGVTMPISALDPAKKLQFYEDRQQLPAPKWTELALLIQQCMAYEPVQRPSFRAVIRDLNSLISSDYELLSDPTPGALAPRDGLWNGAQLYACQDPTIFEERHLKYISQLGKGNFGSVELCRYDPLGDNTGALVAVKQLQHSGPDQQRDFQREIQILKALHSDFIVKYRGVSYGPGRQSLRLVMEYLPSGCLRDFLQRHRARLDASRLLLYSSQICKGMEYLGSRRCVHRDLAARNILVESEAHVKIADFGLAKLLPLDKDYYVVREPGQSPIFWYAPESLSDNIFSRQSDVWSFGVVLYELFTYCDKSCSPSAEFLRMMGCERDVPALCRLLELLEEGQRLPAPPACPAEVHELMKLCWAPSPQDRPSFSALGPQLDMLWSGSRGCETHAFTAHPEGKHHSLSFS
Experimental: Reactions were carried out in a kinase buffer containing 100 mM HEPES (pH 7.4), 1 mM DTT, 10 mM MgCl2, 25 mM NaCl, and 0.01% BSA. Substrate concentrations in the assay were 5 μM ATP (200 uCi/μmole ATP) and 1 μM poly(Glu)4Tyr. Reactions were carried out at 25° C. and 1 nM JAK3.
To each well of a 96 well polycarbonate plate was added 1.5 μl of a candidate JAK3 inhibitor along with 50 μl of kinase buffer containing 2 μM poly(Glu)4Tyr and 10 μM ATP. This was then mixed and 50 μl of kinase buffer containing 2 nM JAK3 enzyme was added to start the reaction. After 20 minutes at room temperature (25 C), the reaction was stopped with 50 μl of 20% trichloroacetic acid (TCA) that also contained 0.4 mM ATP. The entire contents of each well were then transferred to a 96 well glass fiber filter plate using a TomTek Cell Harvester. After washing, 60 μl of scintillation fluid was added and ^33P incorporation detected on a Perkin Elmer TopCount.

SMILES	IC50 (Colo205 cells; incubated for 96 hours) [nM]	Ki (FLT-3) [nM]	Ki (JAK3) [nM]	Ki (FLT-3; read-out: FLT-3 Ki value) [nM]	Ki (JAK3; read-out: JAK3 Ki value) [nM]	IC50 (Colo205 cells; incubated for 72 hours) [nM]
CC1=NN=C(Nc2cc(N3CCC3)nc(Sc3ccc(NC(=O)c4cccc(C(F)(F)F)c4F)cc3)n2)C1 [Compound 55]	50 to 1000	150 to 1000	10 to 500	–	–	–
Cc1cc(Nc2cc(N3CCC3)nc(Sc3ccc(NC(=O)Cc4cccc(Cl)c4)cc3)n2)[nH]n1 [Compound 58]	50 to 1000	–	–	150 to 1000	500 to 2000	–
Cc1cc(Nc2cc(N3CC(F)C3)nc(Sc3ccc(NC(=O)c4ccccc4Cl)cc3)n2)[nH]n1 [Compound 60]	50 to 1000	–	10 to 500	50 to 150	–	–
CC1=NN=C(Nc2cc(N3CCC3)nc(Sc3ccc(NC(=O)c4cccc(Cl)c4F)cc3)n2)C1 [Compound 61]	50 to 1000	150 to 1000	–	–	10 to 500	–
Cc1cc(Nc2cc(N3CC(OC(C)(C)C)C3)nc(Sc3ccc(NC(=O)c4ccccc4Cl)cc3)n2)[nH]n1 [Compound 66]	50 to 1000	150 to 1000	10 to 500	–	–	–
CCC(=O)Nc1ccc(Sc2nc(Nc3cc(C)n[nH]3)cc(N3CC(C)(O)C3)n2)cc1 [Compound 71]	≤ 50	–	–	50 to 150	10 to 500	–
CCCNC(=O)Nc1ccc(Sc2nc(Nc3cc(C)[nH]n3)cc(N3CCC3)n2)cc1 [Compound 73]	> 1000	50 to 150	–	–	500 to 2000	–
Cc1cc(Nc2cc(N3CCC3)nc(Sc3ccc(NC(=O)NCc4ccccc4)cc3)n2)n[nH]1 [Compound 74]	> 1000	50 to 150	10 to 500	–	–	–
CCC(=O)Nc1ccc(Sc2nc(Nc3cc(C4CC4)n[nH]3)cc(N3CC(C)(O)C3)n2)cc1 [Compound 76]	50 to 1000	≤ 50	≤ 10	–	–	–
CCC(=O)Nc1ccc(Sc2nc(C#CC(C)(C)N3CCC3)cc(Nc3cc(C)n[nH]3)n2)cc1 [Compound 77]	50 to 1000	150 to 1000	500 to 2000	–	–	–
CCC(=O)Nc1ccc(Sc2nc(Nc3cc(C4CC4)n[nH]3)cc(N3CC(N4CCOCC4)C3)n2)cc1 [Compound 78]	≤ 50	≤ 50	–	–	≤ 10	–
CCC(=O)Nc1ccc(Sc2nc(Nc3cc(C)n[nH]3)cc(N3CC(C)(C#N)C3)n2)cc1 [Compound 79]	50 to 1000	–	–	≤ 50	10 to 500	–
CCC(=O)Nc1ccc(Sc2nc(Nc3cc(C)n[nH]3)cc(N3CC(C)(NC(C)(C)C)C3)n2)cc1 [Compound 80]	≤ 50	–	10 to 500	50 to 150	–	–
CCC(=O)Nc1ccc(Sc2nc(Nc3cc(C)n[nH]3)cc(N3CC(O)(C(C)(C)C)C3)n2)cc1 [Compound 81]	≤ 50	–	–	≤ 50	≤ 10	≤ 30
CCC(=O)Nc1ccc(Sc2nc(Nc3cc(C)n[nH]3)cc(N3CC(O)(C(F)(F)F)C3)n2)cc1 [Compound 94]	50 to 1000	≤ 50	–	–	10 to 500	–
CCC(=O)Nc1ccc(Sc2nc(Nc3cc(C)n[nH]3)cc(N3CC(C)(OC(C)C)C3)n2)cc1 [Compound 95]	≤ 50	50 to 150	10 to 500	–	–	–
CCC(=O)Nc1ccc(Sc2nc(Nc3cc(C)n[nH]3)cc(N3CC(C)(OC(C)(C)C)C3)n2)cc1 [Compound 96]	≤ 50	–	10 to 500	50 to 150	–	–
Cc1cc(Nc2cc(N3CCC3)nc(Sc3ccc(N)cc3)n2)[nH]n1 [Compound 108]	> 1000	–	–	≤ 50	≤ 10	–

SMILES	IC50 (Colo205 cells; incubated for 96 hours) [nM]	Ki (FLT-3) [nM]	Ki (JAK3) [nM]	Ki (FLT-3; read-out: FLT-3 Ki value) [nM]	Ki (JAK3; read-out: JAK3 Ki value) [nM]	IC50 (Colo205 cells; incubated for 72 hours) [nM]
Cc1cc(Nc2cc(N3CCC3)nc(Sc3ccc(NC(=O)C4CC4(F)F)cc3)n2)[nH]n1 (stereo not shown) [Compound 112]	–	–	–	≤ 50	≤ 10	> 200
Cc1cc(Nc2cc(N3CCC3)nc(Sc3ccc(NC(=O)C(C)(C)C)cc3)n2)[nH]n1 [Compound 114]	–	–	500 to 2000	150 to 1000	–	> 200
Cc1cc(Nc2cc(N3CC(C)(O)C3)nc(Sc3ccc(NC(=O)c4ccccc4C(F)(F)F)cc3)n2)[nH]n1 [Compound 115]	–	50 to 150	≤ 10	–	–	30 to 200
COc1ccc(C(=O)Nc2ccc(Sc3nc(Nc4cc(C)n[nH]4)cc(N4CCC4)n3)cc2)cc1 [Compound 117]	–	–	10 to 500	150 to 1000	–	> 200
Cc1cc(Nc2cc(N3CCC3)nc(Sc3ccc(NC(=O)CCC(F)(F)F)cc3)n2)[nH]n1 [Compound 121]	–	–	10 to 500	50 to 150	–	30 to 200
Cc1cc(Nc2cc(N3CCC3)nc(Sc3ccc(NC(=O)c4ccccc4N(C)C)cc3)n2)[nH]n1 [Compound 124]	–	–	500 to 2000	150 to 1000	–	> 200
COC1CN(c2cc(Nc3cc(C)n[nH]3)nc(Sc3ccc(NC(=O)c4ccccc4C(F)(F)F)cc3)n2)C1 [Compound 126]	–	50 to 150	–	–	10 to 500	30 to 200
Cc1cc(Nc2cc(N3CCC3)nc(Sc3ccc(NC(=O)C(C)CC(F)(F)F)cc3)n2)[nH]n1 (stereo not shown) [Compound 127]	–	–	500 to 2000	150 to 1000	–	30 to 200
Cc1cc(Nc2cc(N3CC(O)(C4CC4)C3)nc(Sc3ccc4ccccc4c3)n2)n[nH]1 [Compound 131]	–	≤ 50	≤ 10	–	–	> 200
Cc1cc(Nc2cc(N3CCC3)nc(Oc3ccc(NC(=O)c4ccccc4C(F)(F)F)cc3)n2)[nH]n1 [Compound 134]	–	50 to 150	10 to 500	–	–	30 to 200
Cc1cc(Nc2cc(N3CCC3)nc(Sc3ccc(NC(=O)c4ccc(CN(C)C)cc4)cc3)n2)[nH]n1 [Compound 137]	50 to 1000	–	–	50 to 150	500 to 2000	–
Cc1ccc(C(=O)Nc2ccc(Sc3nc(Nc4cc(C)n[nH]4)cc(N4CCC4)n3)cc2)cn1 [Compound 145]	–	–	10 to 500	150 to 1000	–	> 200
Cc1cc(Nc2cc(N3CCC3)nc(Sc3ccc(NC(=O)c4ccncc4C(F)(F)F)cc3)n2)[nH]n1 [Compound 146]	–	150 to 1000	10 to 500	–	–	≤ 30
O=C(CC(F)(F)F)Nc1ccc(Sc2nc(Nc3cc[nH]n3)cc(N3CC(F)(C4CC4)C3)n2)cc1 [Compound 148]	–	50 to 150	10 to 500	–	–	> 200
Cc1cc(Nc2cc(N3CCC3)nc(Sc3ccc(NC(=O)c4cc(C)nc(Cl)c4)cc3)n2)[nH]n1 [Compound 149]	–	–	10 to 500	150 to 1000	–	> 200
Cc1cc(Nc2cc(N3CCC3)nc(Sc3ccc(NS(C)(=O)=O)cc3)n2)[nH]n1 [Compound 150]	–	–	≤ 10	≤ 50	–	> 200
Cc1cc(Nc2cc(N3CCC3)nc(Sc3ccc(NC(=O)C(F)(F)F)cc3)n2)[nH]n1 [Compound 158]	–	–	–	50 to 150	≤ 10	> 200
Cc1cc(Nc2cc(N3CC(N4CCCC4)C3)nc(Sc3ccc4ncccc4c3)n2)n[nH]1 [Compound 159]	–	≤ 50	≤ 10	–	–	≤ 30
